Experimental data from PubChem BioAssay AID248 (DTP/NCI, 2004).
Several values for one entry are separate records, joined by “and”; a condition that tells them apart may be missing. Identical values can stand only once. Inconclusive results and toxic doses are left out. Cut-off read from the data, not from the text of the source: active = T/C of 150% or more; inactive = T/C below 125%.

Test system: L1210 leukemia ip in BDF1 mice, survival T/C
Assay: NCI In Vivo Anticancer Drug Screen. Data for tumor model L1210 Leukemia (intraperitoneal) in B6D2F1 (BDF1) mice
Settings: endpoint: mean survival time, higher = longer survival
How it was run: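 Value reflects the ratio of survival in compound-treated mice to survival in vehicle-treated controls, with both groups carrying the same transplanted tumor.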

[1] = dose: 100.0 mg/kg/injection, schedule: Q01DX001 (ip), vehicle: saline
[2] = dose: 200.0 mg/kg/injection, schedule: Q01DX001 (ip), vehicle: saline
[3] = dose: 400.0 mg/kg/injection, schedule: Q01DX001 (ip), vehicle: saline
[4] = dose: 100.0 mg/kg/injection, schedule: Q01DX001 (ip), vehicle: saline with Tween-80
[5] = dose: 200.0 mg/kg/injection, schedule: Q01DX001 (ip), vehicle: saline with Tween-80
[6] = dose: 100.0 mg/kg/injection, schedule: Q04DX003 (ip), vehicle: saline
[7] = dose: 200.0 mg/kg/injection, schedule: Q04DX003 (ip), vehicle: saline
[8] = dose: 400.0 mg/kg/injection, schedule: Q04DX003 (ip), vehicle: saline
[9] = dose: 100.0 mg/kg/injection, schedule: Q04DX002 (ip), vehicle: Klucel (hydroxypropylcellulose) (HPC)
[10] = dose: 200.0 mg/kg/injection, schedule: Q04DX002 (ip), vehicle: Klucel (hydroxypropylcellulose) (HPC)
[11] = dose: 400.0 mg/kg/injection, schedule: Q04DX002 (ip), vehicle: Klucel (hydroxypropylcellulose) (HPC)
[12] = dose: 100.0 mg/kg/injection, schedule: Q01DX009 (ip), vehicle: saline with Tween-80
[13] = dose: 100.0 mg/kg/injection, schedule: Q04DX003 (ip), vehicle: saline with Tween-80
[14] = dose: 200.0 mg/kg/injection, schedule: Q01DX009 (ip), vehicle: saline with Tween-80
[15] = dose: 200.0 mg/kg/injection, schedule: Q04DX003 (ip), vehicle: saline with Tween-80
[16] = dose: 400.0 mg/kg/injection, schedule: Q04DX003 (ip), vehicle: saline with Tween-80
[17] = dose: 50.0 mg/kg/injection, schedule: Q01DX009 (ip), vehicle: saline with Tween-80

Measured: T/C

CCCCCCCCCc1ccc(OC(C)OCCOCCOCC)cc1 (stereo not drawn)
inactive: dose: 100.0 mg/kg/injection, schedule: Q04DX002 (ip), vehicle: saline 97 % of control | dose: 200.0 mg/kg/injection, schedule: Q04DX002 (ip), vehicle: saline 100 % of control | dose: 400.0 mg/kg/injection, schedule: Q04DX002 (ip), vehicle: saline 105 % of control

c1ccc2c(c1)CCc1ccccc1CN(CCNC1=NCCN1)C2
inactive: dose: 6.25 mg/kg/injection, schedule: Q01DX009 (ip), vehicle: Klucel (hydroxypropylcellulose) (HPC) 96 % of control | dose: 12.5 mg/kg/injection, schedule: Q01DX009 (ip), vehicle: Klucel (hydroxypropylcellulose) (HPC) 91 % of control | dose: 25.0 mg/kg/injection, schedule: Q01DX009 (ip), vehicle: Klucel (hydroxypropylcellulose) (HPC) 91 % of control

Cc1cc2c3ccccc3ccc2[n+]2ccccc12
inactive: dose: 4.5 mg/kg/injection, schedule: Q01DX009 (ip), vehicle: acetone 115 % of control | dose: 4.5 mg/kg/injection, schedule: Q01DX009 (ip), vehicle: saline 100 % of control | dose: 9.0 mg/kg/injection, schedule: Q01DX009 (ip), vehicle: acetone 120 % of control | dose: 9.0 mg/kg/injection, schedule: Q01DX009 (ip), vehicle: saline 110 % of control | dose: 18.0 mg/kg/injection, schedule: Q01DX009 (ip), vehicle: acetone 115 % of control | dose: 18.0 mg/kg/injection, schedule: Q01DX009 (ip), vehicle: saline 120 % of control | [1] 107 % of control

CN(C)CCN(CC(=O)O)CC(=O)O
inactive: [1] 100 % of control | [2] 102 % of control | [3] 100 % of control

O=c1[nH][nH]c(=O)c2[nH]cnc12
inactive: dose: 100.0 mg/kg/injection, schedule: Q01DX009 (ip), vehicle: Klucel (hydroxypropylcellulose) (HPC) 107 % of control | dose: 100.0 mg/kg/injection, schedule: Q04DX003 (ip), vehicle: Klucel (hydroxypropylcellulose) (HPC) 104 % of control | dose: 200.0 mg/kg/injection, schedule: Q01DX009 (ip), vehicle: Klucel (hydroxypropylcellulose) (HPC) 103 % of control | dose: 200.0 mg/kg/injection, schedule: Q04DX003 (ip), vehicle: Klucel (hydroxypropylcellulose) (HPC) 104 % of control | dose: 400.0 mg/kg/injection, schedule: Q01DX009 (ip), vehicle: Klucel (hydroxypropylcellulose) (HPC) 117 % of control | dose: 400.0 mg/kg/injection, schedule: Q04DX003 (ip), vehicle: Klucel (hydroxypropylcellulose) (HPC) 117 % of control

NC(N)=NN=C(c1ccccc1)c1ccccc1
inactive: dose: 15.0 mg/kg/injection, schedule: Q01DX Z (ip), vehicle: other 101 % of control | dose: 30.0 mg/kg/injection, schedule: Q01DX Z (ip), vehicle: other 98 % of control | dose: 60.0 mg/kg/injection, schedule: Q01DX Z (ip), vehicle: other 106 % of control

NC1=NCCN1c1cccc2ccccc12
inactive: dose: 75.0 mg/kg/injection, schedule: Q01DX001 (ip), vehicle: carboxymethylcellulose (CMC) 102 % of control | dose: 150.0 mg/kg/injection, schedule: Q01DX001 (ip), vehicle: carboxymethylcellulose (CMC) 98 % of control

C[S+]1C=Cc2ccccc2C1c1ccc(Cl)cc1 (stereo not drawn)
inactive: dose: 25.0 mg/kg/injection, schedule: Q04DX002 (ip), vehicle: Klucel (hydroxypropylcellulose) (HPC) 117 % of control

CC1C=C2c3ccccc3CC2C2C(=O)OC(=O)C12 (stereo not drawn)
inactive: dose: 75.0 mg/kg/injection, schedule: Q01DX001 (ip), vehicle: saline 95 % of control | dose: 150.0 mg/kg/injection, schedule: Q01DX001 (ip), vehicle: saline 100 % of control | dose: 300.0 mg/kg/injection, schedule: Q01DX001 (ip), vehicle: saline 100 % of control

C(Cc1ccccc1)=C(CCc1ccccc1)CCc1ccccc1
inactive: [4] 104 % of control | [5] 93 % of control | dose: 400.0 mg/kg/injection, schedule: Q01DX001 (ip), vehicle: saline with Tween-80 93 % of control

O=C(O)CSC(CC(=O)O)C(F)(F)C(F)(F)C(F)(F)F (stereo not drawn)
inactive: dose: 100.0 mg/kg/injection, schedule: Q01DX009 (ip), vehicle: saline 100 % of control | [6] 96 % of control | dose: 200.0 mg/kg/injection, schedule: Q01DX009 (ip), vehicle: saline 97 % of control | [7] 98 % of control | dose: 400.0 mg/kg/injection, schedule: Q01DX009 (ip), vehicle: saline 104 % of control | [8] 93 % of control

O=C(/C(=C/c1cccc(Cl)c1)c1ccccc1)c1ccc(O)cc1
inactive: dose: 100.0 mg/kg/injection, schedule: Q01DX001 (ip), vehicle: carboxymethylcellulose (CMC) 101 % of control | dose: 200.0 mg/kg/injection, schedule: Q01DX001 (ip), vehicle: carboxymethylcellulose (CMC) 90 % of control

Fc1ccc(NC(=S)Nc2ccccc2)cc1
inactive: [9] 108 % of control | [10] 116 % of control | [11] 97 % of control

COc1ccc(C)cc1NC(=O)Nc1cc(Cl)ccc1C
inactive: [4] 93 % of control | [12] 95 % of control and 112 % of control | dose: 100.0 mg/kg/injection, schedule: Q04DX002 (ip), vehicle: saline with Tween-80 102 % of control and 87 % of control | [13] 90 % of control | [5] 93 % of control | [14] 102 % of control and 88 % of control | dose: 200.0 mg/kg/injection, schedule: Q04DX002 (ip), vehicle: saline with Tween-80 87 % of control | [15] 101 % of control | dose: 400.0 mg/kg/injection, schedule: Q01DX009 (ip), vehicle: saline with Tween-80 93 % of control and 91 % of control | dose: 400.0 mg/kg/injection, schedule: Q04DX002 (ip), vehicle: saline with Tween-80 95 % of control and 87 % of control | [16] 94 % of control

COc1cc(O)c2c(c1)C(=O)c1cc3c(c(O)c1C2=O)C(OC1OC(C)C(O)C(O)C1OC)C(OC)C(C)(O)C3=O (stereo not drawn)
inactive: [1] 92 % of control | [2] 103 % of control | [3] 97 % of control

CC12CCC3(CCC4(C)C(=C3C1)CCC1C3(C)CCC(OC5OC(CO)C(O)C(O)C5O)C(C)(C)C3CCC14C)C(=O)O2 (stereo not drawn)
inactive: [17] 104 % of control | [12] 108 % of control | [14] 114 % of control

CCC1(C)CC(=O)N(C/C=C(\C)CCC=C(C)C)C(=O)C1
inactive: [13] 100 % of control | [15] 105 % of control | [16] 97 % of control

Cc1cc(C)c(NC(=O)Nc2ccc(Cl)c(Cl)c2)cc1C
inactive: [9] 93 % of control | [10] 96 % of control | [11] 93 % of control

COC(=O)C1(C)COP(=O)(NC2CCCCC2)OC1 (stereo not drawn)
inactive: [1] 94 % of control | [2] 97 % of control | [3] 108 % of control

COC1CCC(OC2CC(C3(C)CCC4(CC(O)C(C)C(C(C)/C=C(\C)C(=O)C(C)CC(C)C(=O)O)O4)O3)OC3(OC(C4OC(O)(CO)C(C)CC4C)CC3C)C2C)OC1C (stereo not drawn)
inactive: dose: 0.93 mg/kg/injection, schedule: Q01DX001 (ip), vehicle: saline 93 % of control | dose: 1.87 mg/kg/injection, schedule: Q01DX001 (ip), vehicle: saline 90 % of control | dose: 28.0 micrograms/kg/injection, schedule: Q01DX009 (ip), vehicle: saline 94 % of control | dose: 57.0 micrograms/kg/injection, schedule: Q01DX009 (ip), vehicle: saline 88 % of control | dose: 57.0 micrograms/kg/injection, schedule: Q04DX003 (ip), vehicle: saline 94 % of control | dose: 115.0 micrograms/kg/injection, schedule: Q01DX009 (ip), vehicle: saline 105 % of control | dose: 115.0 micrograms/kg/injection, schedule: Q04DX003 (ip), vehicle: saline 91 % of control | dose: 230.0 micrograms/kg/injection, schedule: Q04DX003 (ip), vehicle: saline 89 % of control

O=[N+]([O-])c1cccc(-c2nn[nH]n2)c1
inactive: [6] 94 % of control | [7] 94 % of control | [8] 96 % of control

COc1ccc(C2(C(=O)O)CCCC2)cc1
inactive: [12] 102 % of control | [13] 103 % of control | [14] 96 % of control | [15] 108 % of control | [16] 97 % of control

Cc1ccc(N(C)CC#CCOc2ccc(Br)cc2)cc1
inactive: [9] 105 % of control | [10] 99 % of control | [11] 99 % of control

CCOC(=O)c1c(NC(C)=O)sc2c1CCCC2
inactive: [17] 108 % of control | [12] 108 % of control | [14] 95 % of control
